One series concerns the target 5-HT7 receptor (Homo sapiens, UniProt P34969). In words: Radioligand binding, 5-HT7 ([3H]-5-CT displacement).
A further series deals with dopamine D2L receptor (Homo sapiens, UniProt P14416). In words: Radioligand binding, D2 ([3H]-raclopride displacement).
The next series deals with T1, 5-HT1A receptor (Homo sapiens, UniProt P08908).
T1 sequence (P08908 1-422): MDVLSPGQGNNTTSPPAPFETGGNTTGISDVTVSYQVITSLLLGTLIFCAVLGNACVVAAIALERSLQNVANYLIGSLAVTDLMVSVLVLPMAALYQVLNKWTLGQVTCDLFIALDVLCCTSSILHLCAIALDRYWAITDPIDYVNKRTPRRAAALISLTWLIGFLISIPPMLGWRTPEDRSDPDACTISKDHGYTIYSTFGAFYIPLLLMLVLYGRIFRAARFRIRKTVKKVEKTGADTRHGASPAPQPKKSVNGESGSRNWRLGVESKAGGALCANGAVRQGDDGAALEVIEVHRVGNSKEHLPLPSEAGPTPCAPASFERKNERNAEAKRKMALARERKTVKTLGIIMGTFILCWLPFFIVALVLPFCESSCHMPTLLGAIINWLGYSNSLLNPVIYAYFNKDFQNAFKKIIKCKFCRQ
In words: Radioligand binding, 5-HT1A ([3H]-8-OH-DPAT displacement).

For series [1], the system named is Wistar rats. In words: Forced swim test (FST) in Wistar rats. Conditions: for Minimum effective dose, forced swim test in rats (potential antidepressant properties): IP, 60 minutes before the test, Wistar rats. It is filed as in vivo, rat. As to the method: (§1) For intraperitoneal (i.p.) administration: to the desired quantity of the solid compound in a glass beaker, required volume of sterile water for injection was added and swirled with glass bar until complete dissolution of the compound.
(§2) Animals. Male Wistar rats weighing 220-250 g were used in the test. […] All animals were kept in an environmentally controlled rooms (ambient temperature 22±2° C; relative humidity 50-60%; 12:12 light:dark cycle, lights on at 8:00). They were allowed to acclimatize with the environment for one week before commencement of the experiments. Standard laboratory food (Ssniff M-Z) and filtered water were freely available. The experiments were conducted in the light phase between 09.00 and 14.00 hours. 1 h before the start of the experiment, rats were transferred to the experimental room for acclimation.
Apparatus and procedure. […] On the first day of experiment, the animals were gently individually placed in Plexiglas cylinders (40 cm high, 18 cm in diameter) containing 15 cm of water maintained at 25° C. for 15 min. Upon removal from water, the rats were placed in a Plexiglas box for 30 min under a 60-W bulb to dry off. On the following day, the rats were placed again in the cylinder and the total duration of immobility was recorded throughout the 5-min test period. Fresh water was used for each animal.
(§3) Experimental design. The compounds were administered IP, 60 minutes before the test.
(§4) Drugs. The experimental compounds were dissolved in the distilled water. All compounds were administrated in the volume of 2 ml/kg.

For series [2], the system named is Wistar rats. Put plainly: Conflict drinking test (Vogel test) in Wistar rats. Conditions: for Minimum effective dose, conflict drinking (Vogel test) in rats (potential anxiolytic properties): IP, 60 minutes before the test, Wistar rats; for active dose in the conflict drinking test (Vogel test), increasing number of licks and shocks received: rats. Type of series: in vivo, rat. As to the method:
as §1, §2
Apparatus and procedure. […] Experimental chambers were connected to PC software by control chassis and electric shocks' generator. On the first day of the experiment, the rats were adapted to the test chambers for 10 min. […] Afterwards, they were allowed a 30-min free-drinking session in their home cages. […] Recording data started immediately after the first lick and every 20 licks rats were punished with an electric shock (0.5 mA, lasting 1 s). The impulses were released via the spout of the drinking bottles. If a rat was drinking when an impulse was released, it received a shock. The number of licks and the number of shocks received during a 5-min experimental session was recorded automatically.
as §3, §4

A further series concerns the target H1 receptors (Homo sapiens, UniProt P35367). In words: biochemical. Conditions: read-out: % inhibition of control binding at 10^−6M, H1.
A further series has as its target T2, M1 receptors (Homo sapiens, UniProt P11229).
T2 sequence (P11229 1-460): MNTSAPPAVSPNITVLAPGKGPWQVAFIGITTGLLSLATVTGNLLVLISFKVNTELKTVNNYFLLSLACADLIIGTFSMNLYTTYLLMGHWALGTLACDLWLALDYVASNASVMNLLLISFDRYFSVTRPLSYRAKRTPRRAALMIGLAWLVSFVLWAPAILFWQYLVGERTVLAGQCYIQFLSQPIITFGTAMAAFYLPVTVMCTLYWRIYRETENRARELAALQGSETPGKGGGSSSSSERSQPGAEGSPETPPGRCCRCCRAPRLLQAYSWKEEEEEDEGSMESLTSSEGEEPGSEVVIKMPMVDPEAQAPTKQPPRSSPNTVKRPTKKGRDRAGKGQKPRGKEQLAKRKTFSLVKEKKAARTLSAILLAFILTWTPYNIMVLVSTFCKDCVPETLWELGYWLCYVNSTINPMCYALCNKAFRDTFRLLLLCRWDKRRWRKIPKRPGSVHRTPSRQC
In words: biochemical. Conditions: read-out: % inhibition of control binding at 10^−6M, M1.

A further series deals with T3, 5-HT2C receptors (Homo sapiens, UniProt P28335).
T3 sequence (P28335 33-458): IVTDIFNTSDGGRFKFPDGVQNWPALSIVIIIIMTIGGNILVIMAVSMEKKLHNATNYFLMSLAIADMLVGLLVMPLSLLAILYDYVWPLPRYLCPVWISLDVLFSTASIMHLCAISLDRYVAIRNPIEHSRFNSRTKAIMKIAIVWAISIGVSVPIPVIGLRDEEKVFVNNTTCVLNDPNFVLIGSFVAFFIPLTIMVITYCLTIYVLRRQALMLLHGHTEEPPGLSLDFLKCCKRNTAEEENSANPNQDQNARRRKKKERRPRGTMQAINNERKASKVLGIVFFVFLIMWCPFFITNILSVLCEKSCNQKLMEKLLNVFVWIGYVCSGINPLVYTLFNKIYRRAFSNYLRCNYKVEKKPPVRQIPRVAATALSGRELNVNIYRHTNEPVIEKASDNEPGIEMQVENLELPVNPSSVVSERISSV
Put plainly: biochemical. Conditions: read-out: % inhibition of control binding at 10^−6M, 5-HT2C.

In the next series the target is D3 receptors (Homo sapiens, UniProt P35462). Put plainly: biochemical. The conditions noted are these: read-out: % inhibition of control binding at 10^−6M, D3.
For a further series, the system named is Sprague-Dawley rats. In words: Novel object recognition (NOR) test in Sprague-Dawley rats, PCP-induced deficit. Type of series: in vivo, rat.
The target in a further series is 5-HT6 receptor (Homo sapiens, UniProt P50406). Put plainly: Radioligand binding, 5-HT6 ([3H]-LSD displacement). Conditions: 10^−6 M; values marked c in the 5-HT6 column.
Where [3] appears, read: read-out: Ki 5-HT1A, cloned human receptor in HEK293, three independent experiments, SEM ± 22%.

Read-outs that look alike come from different tables or passages of the source. Marks after values point to notes of the source that are not given here.

Sequence of 5-HT7 receptor (P34969 1-432 limits assumed): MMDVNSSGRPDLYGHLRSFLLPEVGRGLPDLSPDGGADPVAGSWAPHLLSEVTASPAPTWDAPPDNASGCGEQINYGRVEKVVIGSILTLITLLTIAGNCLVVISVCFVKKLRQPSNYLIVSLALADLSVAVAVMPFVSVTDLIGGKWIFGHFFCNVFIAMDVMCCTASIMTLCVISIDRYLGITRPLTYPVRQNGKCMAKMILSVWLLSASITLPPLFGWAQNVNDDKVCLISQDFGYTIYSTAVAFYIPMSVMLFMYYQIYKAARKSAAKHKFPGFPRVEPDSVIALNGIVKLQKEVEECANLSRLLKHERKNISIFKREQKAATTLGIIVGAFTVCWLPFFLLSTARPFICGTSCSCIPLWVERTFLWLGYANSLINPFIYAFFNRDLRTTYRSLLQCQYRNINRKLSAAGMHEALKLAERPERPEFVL
Sequence of D3 receptors (P35462 whole entry): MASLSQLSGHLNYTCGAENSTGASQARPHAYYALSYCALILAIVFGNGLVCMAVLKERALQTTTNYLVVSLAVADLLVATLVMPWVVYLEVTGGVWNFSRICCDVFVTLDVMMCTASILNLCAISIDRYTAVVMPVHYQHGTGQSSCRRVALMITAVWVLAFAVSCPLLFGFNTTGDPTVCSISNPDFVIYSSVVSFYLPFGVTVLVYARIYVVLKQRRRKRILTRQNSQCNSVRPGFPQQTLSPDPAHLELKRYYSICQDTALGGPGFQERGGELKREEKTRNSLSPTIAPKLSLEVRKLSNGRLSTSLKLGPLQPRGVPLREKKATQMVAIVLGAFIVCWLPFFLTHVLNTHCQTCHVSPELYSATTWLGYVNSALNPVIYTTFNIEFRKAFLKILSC
Sequence of dopamine D2L receptor (P14416 whole entry): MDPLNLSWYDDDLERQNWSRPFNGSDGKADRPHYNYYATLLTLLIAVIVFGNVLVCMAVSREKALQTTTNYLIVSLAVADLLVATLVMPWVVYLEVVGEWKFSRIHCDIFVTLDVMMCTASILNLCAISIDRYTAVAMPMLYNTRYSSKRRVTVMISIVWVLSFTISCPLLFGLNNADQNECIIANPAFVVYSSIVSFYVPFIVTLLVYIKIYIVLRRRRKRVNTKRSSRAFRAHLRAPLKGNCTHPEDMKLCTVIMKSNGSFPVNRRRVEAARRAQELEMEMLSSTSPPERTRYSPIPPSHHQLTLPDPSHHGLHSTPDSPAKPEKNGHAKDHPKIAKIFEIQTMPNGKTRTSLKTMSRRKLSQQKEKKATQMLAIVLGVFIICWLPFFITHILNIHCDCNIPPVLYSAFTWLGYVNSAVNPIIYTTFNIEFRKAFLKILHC
Sequence of 5-HT6 receptor (P50406 whole entry): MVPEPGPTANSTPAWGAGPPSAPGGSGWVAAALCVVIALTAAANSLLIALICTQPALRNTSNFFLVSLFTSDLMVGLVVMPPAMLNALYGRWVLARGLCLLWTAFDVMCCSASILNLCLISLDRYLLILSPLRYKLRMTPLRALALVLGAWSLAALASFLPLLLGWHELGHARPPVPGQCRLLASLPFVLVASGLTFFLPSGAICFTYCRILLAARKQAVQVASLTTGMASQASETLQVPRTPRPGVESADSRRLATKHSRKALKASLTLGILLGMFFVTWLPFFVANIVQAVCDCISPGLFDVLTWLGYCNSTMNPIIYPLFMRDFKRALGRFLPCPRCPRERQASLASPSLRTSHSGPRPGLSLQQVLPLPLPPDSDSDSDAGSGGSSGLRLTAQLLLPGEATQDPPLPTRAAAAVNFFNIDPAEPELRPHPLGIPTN
Sequence of H1 receptors (P35367 whole entry): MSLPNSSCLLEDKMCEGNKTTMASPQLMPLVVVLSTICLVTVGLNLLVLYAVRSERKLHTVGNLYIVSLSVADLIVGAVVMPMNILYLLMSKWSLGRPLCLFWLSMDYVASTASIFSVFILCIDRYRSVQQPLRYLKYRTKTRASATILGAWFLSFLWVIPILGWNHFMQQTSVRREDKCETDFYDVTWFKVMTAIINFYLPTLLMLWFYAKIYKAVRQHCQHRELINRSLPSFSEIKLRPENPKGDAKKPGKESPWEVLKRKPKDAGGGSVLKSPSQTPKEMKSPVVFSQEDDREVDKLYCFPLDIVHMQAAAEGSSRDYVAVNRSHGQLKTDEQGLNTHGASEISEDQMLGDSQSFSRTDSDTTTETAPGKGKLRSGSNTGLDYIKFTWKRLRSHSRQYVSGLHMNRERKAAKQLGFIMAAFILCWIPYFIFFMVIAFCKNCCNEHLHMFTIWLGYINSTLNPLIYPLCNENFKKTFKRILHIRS
Description for 5-HT2C receptors: (§5) Each compound was tested in duplicate at 10^-6 M concentration.
Description for D3 receptors: as §5
Description for H1 receptors: as §5
Description for M1 receptors: as §5
Description for Sprague-Dawley rats: Rats were allowed to acclimatize for at least 7 days before the start of the experimental procedure. During this week animals were handled for at least 3 times. Behavioral testing was carried out during the light phase of the light/dark cycle. At least 1 h before the start of the experiment, rats were transferred to the experimental room for acclimation.
Apparatus and procedure. Rats were tested in a dimly lit (25 lx) “open field” apparatus made of a dull gray plastic (66×56×30 cm). After each measurement, the floor was cleaned and dried.
The procedure lasting for 2 days consisted of the habituation to the test arena (without any objects) for 5 min. The test session comprising of two trials separated by an inter-trial interval (ITI) of 1 h was carried out on the next day. […]
Exploration time of the objects and the distance traveled were measured using the Any-maze® video tracking system. Based on exploration time (E) of two objects during T2, discrimination index (DI) was calculated according to the formula: […]

In the case of `O=S(=O)(c1cccc2ccccc12)n1ccc2c(N3CCNCC3)nc3ccccc3c21` [Compound 43, 1-(naphthalen-1-ylsulfonyl)-4-(piperazin-1-yl)-1H-pyrrolo[3,2-c]quinoline], the melting point (as a rule, the temperature of the solid-liquid transition) was in the range of 158 to 160 °C. For the same compound, the affinity at 5-HT7 receptor, expressed as Ki, was 1990 nM. For the same compound, the Ki (in general, a measure of affinity in units of concentration, obtained from inhibition or displacement) at dopamine D2L receptor was 4010 nM. Moreover, the Ki on 5-HT1A receptor is 711 nM.
On to `O=S(=O)(c1cccc(Cl)c1)n1ccc2c(N[C@@H]3CCNC3)nc3ccccc3c21` [Compound 7, (R)-1-((3-chlorophenyl)sulfonyl)-N-(pyrrolidin-3-yl)-1H-pyrrolo[3,2-c]quinolin-4-amine], for which the “Minimum effective dose, forced swim test in rats (potential antidepressant properties)” value (“Minimum effective dose, forced swim test” for short) in the series with Wistar rats [1] came to 3 mg/kg. The “Minimum effective dose, conflict drinking (Vogel test) in rats (potential anxiolytic properties)” value with Wistar rats [2] is 10 mg/kg. Moreover, the inhibition (as a rule, the drop in the measured response relative to a control, in per cent) at 1 µM at H1 receptors is 17%; at M1 receptors, -1%; at 5-HT2C receptors, 2%; on D3 receptors it was 82%. The Ki on 5-HT7 receptor is 3940 nM; on dopamine D2L receptor, 754 nM; on 5-HT1A receptor it was 2680 nM.
Compound `O=S(=O)(c1cccc(Cl)c1)n1ccc2c(N3CCNCC3)nc3ccccc3c21` [Compound 29, 1-((3-chlorophenyl)sulfonyl)-4-(piperazin-1-yl)-1H-pyrrolo[3,2-c]quinoline] registered a melting point of 161 to 163 °C. Also, the “Minimum effective dose, forced swim test” value in the series on Wistar rats [1] is greater than 10 mg/kg. Moreover, the “Minimum effective dose, conflict drinking (Vogel test) in rats (potential anxiolytic properties)” value in the series with Wistar rats [2] worked out at 10 mg/kg. Besides, at M1 receptors, the inhibition at 1 µM is -11%. At 5-HT2C receptors, the inhibition at 1 µM was 13%. The inhibition at 1 µM on D3 receptors was 66%. Besides, at 5-HT7 receptor (read-out: Ki 5-HT7), the Ki is 1790 nM. Also, the Ki on dopamine D2L receptor (read-out: Ki D2, cloned human receptor in HEK293, three independent experiments, SEM ± 22%) is 1340 nM. For the same compound, the Ki on 5-HT1A receptor (setting [3]) came to 773 nM.
In the case of `COc1ccc(NS(=O)(=O)c2sc3ccc(Cl)cc3c2C)cc1N1CCNCC1` [SB-271046, reference compound], the “effective dose in the forced swim test (reference compounds)” value in the series on Wistar rats [1] (rats, antidepressant-like activity, imipramine increased climbing time) is 10 mg/kg. In addition, in the series with Wistar rats [2], the “active dose in the conflict drinking test (Vogel test), increasing number of licks and shocks received” value is reported as no more than 10 mg/kg. Also, the “dose effective against PCP-induced cognitive deficit in NOR test” value in the series on Sprague-Dawley rats is reported as 1 mg/kg.
For the compound `Nc1ccc(S(=O)(=O)n2ccc3c(N4CCNCC4)nc4ccccc4c32)cc1` [Compound 42, 1-(4-(aminophenyl)sulfonyl)-4-(piperazin-1-yl)-1H-pyrrolo[3,2-c]quinoline], in the series with Wistar rats [1], the “Minimum effective dose, forced swim test” value is 0.1 mg/kg. Further, the “Minimum effective dose, conflict drinking (Vogel test) in rats (potential anxiolytic properties)” value in the series with Wistar rats [2] was 3 mg/kg. On 5-HT6 receptor, the “displacement % at 10^−6M, 5-HT6” value is listed as 97^c %.
On to `O=S(=O)(c1cccc(F)c1)n1ccc2c(N3CCNCC3)nc3ccccc3c21` [Compound 30, 1-((3-fluorophenyl)sulfonyl)-4-(piperazin-1-yl)-1H-pyrrolo[3,2-c]quinoline], for which, in the series with Wistar rats [1], the “Minimum effective dose, forced swim test” value is 10 mg/kg. In addition, the “Minimum effective dose, conflict drinking (Vogel test) in rats (potential anxiolytic properties)” value in the series with Wistar rats [2] is 10 mg/kg. In addition, at 5-HT1A receptor (setting [3]), the Ki is 437 nM.
As to `CN1C(=O)CN=C(c2ccccc2)c2cc(Cl)ccc21` [diazepam, reference compound], the “active dose in the conflict drinking test (Vogel test), increasing number of licks and shocks received” value with Wistar rats [2] is 5 to 10 mg/kg.
In the case of `O=S(=O)(c1cccc(Cl)c1)n1ccc2c(N[C@H]3CCNC3)nc3ccccc3c21` [Compound 6, (S)-1-((3-chlorophenyl)sulfonyl)-N-(pyrrolidin-3-yl)-1H-pyrrolo[3,2-c]quinolin-4-amine], the “Minimum effective dose, forced swim test” value in the series with Wistar rats [1] was 10 mg/kg. In addition, the “Minimum effective dose, conflict drinking (Vogel test) in rats (potential anxiolytic properties)” value in the series on Wistar rats [2] stood at 3 mg/kg. Besides, the inhibition at 1 µM stood at 9% on M1 receptors, 21% on 5-HT2C receptors and 69% on D3 receptors. Also, the inhibition constant (Ki) on 5-HT7 receptor came out at 4990 nM; on dopamine D2L receptor it was 1010 nM; at 5-HT1A receptor, 2350 nM.
As to `O=S(=O)(c1cccc(F)c1)n1ccc2c(N[C@@H]3CCNC3)nc3ccccc3c21` [Compound 10, (R)-1-((3-fluorophenyl)sulfonyl)-N-(pyrrolidin-3-yl)-1H-pyrrolo[3,2-c]quinolin-4-amine], the “Minimum effective dose, conflict drinking (Vogel test) in rats (potential anxiolytic properties)” value with Wistar rats [2] is listed as 10 mg/kg. Further, on 5-HT6 receptor, the “displacement % at 10^−6M, 5-HT6” value is 100^c %.

For the origin of these results see US20170239237A1, “PYRROLOQUINOLINE DERIVATIVES AS 5-HT6 ANTAGONISTS, PREPARATION METHOD AND USE THEREOF” (Uniwersytet Jagiellonski, priority 2013, published 2017).
